Laboratory results as given in PMC6979384, “Characterization of the plant homeodomain (PHD) reader family for their histone tail interactions” (Epigenetics & Chromatin, 2020).
Where no end group is shown, it is not given here. [ ]: non-standard residue; d: D form. Lys(Me3) = C[N+](C)(C)CCCC[C@H](N)C(=O)O

Assays:
Assay in all cases: Histone peptide microarray
Assay type in all cases: binding, human
Settings in all cases: histone peptide array
[1] = system: RAG2
Outline: (§1)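 Each reader, produced as a GST fusion and purified, was tested at 0.5 μM on synthetic histone peptides (293 in total) carrying single or combinatorial marks. Intensities averaged over four replicates.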

[2] = system: KDM5B (1)
Outline: as §1

[3] = system: BPTF (PB)
Outline: as §1

[4] = system: PHRF1 (RP)
Outline: as §1

[5] = system: CHD4 (PPCC)
Outline: as §1

[6] = system: ING3
Outline: as §1

[7] = system: PHF21A
Outline: as §1

[8] = system: KDM4C (TTP)
Outline: as §1

[9] = system: PHF23
Outline: as §1

[10] = system: KDM7A
Outline: as §1

[11] = system: MLL5
Outline: as §1

[12] = system: KDM5A (3)
Outline: as §1

[13] = system: DPF2 (PPC2W2)
Outline: as §1

[14] = system: DIDO1
Outline: as §1

[15] = system: TRIM66 (PB)
Outline: as §1

[16] = system: ING1
Outline: as §1

[17] = system: KDM5A (1)
Outline: as §1

[18] = system: BAZ2B
Outline: as §1

[19] = system: TAF3
Outline: as §1

[20] = system: AIRE (PP)
Outline: as §1

[21] = system: ING2
Outline: as §1

[22] = system: MORC3 (CW)
Outline: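 A peptide microarray holding 293 synthetic histone peptides with individual or combinatorial modifications was probed with each GST-PHD protein at 0.5 μM. Values represent mean intensity (±SD) from four replicates.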

[23] = system: PHF13
Outline: as §1

[24] = system: CHD5 (PPCC)
Outline: as §1

[25] = system: PHF8
Outline: as §1

[26] = system: ING5
Outline: as §1

[27] = system: PHF2
Outline: as §1

[28] = system: CHD5 (PCC)
Outline: as §1

[29] = system: KDM5B (3)
Outline: as §1

[30] = system: ING4
Outline: as §1

[31] = system: SP140L
Outline: as §1

[32] = sheet "Array Heatmap", GST-tagged reader, total n = 4
[33] = GST-tagged RAG2, arrays performed twice, n of 4
[34] = GST-tagged KDM5B (1), arrays performed twice, n of 4
[35] = GST-tagged BPTF (PB = PHD + Bromodomain), arrays performed twice, n of 4
[36] = GST-tagged PHRF1 (RP), arrays performed twice, n of 4
[37] = GST-tagged CHD4 (PPCC = Dual PHD + Dual Chromodomain), arrays performed twice, n of 4
[38] = GST-tagged ING3, arrays performed twice, n of 4
[39] = GST-tagged PHF21A, arrays performed twice, n of 4
[40] = GST-tagged KDM4C (TTP = Tandem Tudor domain + PHD), arrays performed twice, n of 4
[41] = GST-tagged PHF23, arrays performed twice, n of 4
[42] = GST-tagged KDM7A, arrays performed twice, n of 4
[43] = GST-tagged MLL5, arrays performed twice, n of 4
[44] = GST-tagged KDM5A (3), arrays performed twice, n of 4
[45] = GST-tagged DPF2 (PPC2W2 = Dual PHD + C2W2-type Zn-finger), arrays performed twice, n of 4
[46] = GST-tagged DIDO1, arrays performed twice, n of 4
[47] = GST-tagged TRIM66 (PB = PHD + Bromodomain), arrays performed twice, n of 4
[48] = GST-tagged ING1, arrays performed twice, n of 4
[49] = GST-tagged KDM5A (1), arrays performed twice, n of 4
[50] = GST-tagged BAZ2B, arrays performed twice, n of 4
[51] = GST-tagged TAF3, arrays performed twice, n of 4
[52] = GST-tagged AIRE (PP), arrays performed twice, n of 4
[53] = GST-tagged ING2, arrays performed twice, n of 4
[54] = GST-tagged MORC3 (CW = CW-type Zn-finger), arrays performed twice, n of 4
[55] = GST-tagged PHF13, arrays performed twice, n of 4
[56] = GST-tagged CHD5 (PPCC = Dual PHD + Dual Chromodomain), arrays performed twice, n of 4
[57] = GST-tagged PHF8, arrays performed twice, n of 4
[58] = GST-tagged ING5, arrays performed twice, n of 4
[59] = GST-tagged PHF2, arrays performed twice, n of 4
[60] = GST-tagged CHD5 (PCC = PHD + Dual Chromodomain), arrays performed twice, n of 4
[61] = GST-tagged KDM5B (3), arrays performed twice, n of 4
[62] = GST-tagged ING4, arrays performed twice, n of 4
[63] = GST-tagged SP140L, arrays performed twice, n of 4

H3K79me3: H3 74-84 (IAQDF[Lys(Me3)]TDLRF; UniProt P68431 75-85, looked up, fragment) [Peptide H3K79me3]
Array Heatmap signal, RAG2 [1, 32]: 0.2475
Array Heatmap signal, KDM5B (1) [2, 32]: 0.6382
Array Heatmap signal, BPTF (PB) [3, 32]: 0.3567
Array Heatmap signal, PHRF1 (RP) [4, 32]: 0.4811
Array Heatmap signal, CHD4 (PPCC) [5, 32]: 0.5886
Array Heatmap signal, ING3 [6, 32]: 0.4762
Array Heatmap signal, PHF21A [7, 32]: 0.4782
Array Heatmap signal, KDM4C (TTP) [8, 32]: 0.4877
Array Heatmap signal, PHF23 [9, 32]: 0.5318
Array Heatmap signal, KDM7A [10, 32]: 0.3373
Array Heatmap signal, MLL5 [11, 32]: 0.5385
Array Heatmap signal, KDM5A (3) [12, 32]: 0.4757
Array Heatmap signal, DPF2 (PPC2W2) [13, 32]: 0.6998
Array Heatmap signal, DIDO1 [14, 32]: 0.7358
Array Heatmap signal, TRIM66 (PB) [15, 32]: 0.557
Array Heatmap signal, ING1 [16, 32]: 0.5877
Array Heatmap signal, KDM5A (1) [17, 32]: 0.4539
Array Heatmap signal, BAZ2B [18, 32]: 0.458
Array Heatmap signal, TAF3 [19, 32]: 0.2594
Array Heatmap signal, AIRE (PP) [20, 32]: 0.4525
Array Heatmap signal, ING2 [21, 32]: 0.6086
Array Heatmap signal, MORC3 (CW) [22, 32]: 0.3856
Array Heatmap signal, PHF13 [23, 32]: 0.6042
Array Heatmap signal, CHD5 (PPCC) [24, 32]: 0.5544
Array Heatmap signal, PHF8 [25, 32]: 0.3681
Array Heatmap signal, ING5 [26, 32]: 0.3656
Array Heatmap signal, PHF2 [27, 32]: 0.5812
Array Heatmap signal, CHD5 (PCC) [28, 32]: 0.767
Array Heatmap signal, KDM5B (3) [29, 32]: 0.4402
Array Heatmap signal, ING4 [30, 32]: 0.4605
Array Heatmap signal, SP140L [31, 32]: 0.3582

H3R2me1 + K4me2: H3 1-20
Array Heatmap signal, RAG2 [1, 33]: 0.5456
Array Heatmap signal, KDM5B (1) [2, 34]: 0.6024
Array Heatmap signal, BPTF (PB) [3, 35]: 0.3634
Array Heatmap signal, PHRF1 (RP) [4, 36]: 0.5537
Array Heatmap signal, CHD4 (PPCC) [5, 37]: 0.6115
Array Heatmap signal, ING3 [6, 38]: 0.5383
Array Heatmap signal, PHF21A [7, 39]: 0.4826
Array Heatmap signal, KDM4C (TTP) [8, 40]: 0.4903
Array Heatmap signal, PHF23 [9, 41]: 0.6929
Array Heatmap signal, KDM7A [10, 42]: 0.344
Array Heatmap signal, MLL5 [11, 43]: 0.577
Array Heatmap signal, KDM5A (3) [12, 44]: 0.6755
Array Heatmap signal, DPF2 (PPC2W2) [13, 45]: 0.7133
Array Heatmap signal, DIDO1 [14, 46]: 0.7623
Array Heatmap signal, TRIM66 (PB) [15, 47]: 0.6589
Array Heatmap signal, ING1 [16, 48]: 0.6158
Array Heatmap signal, KDM5A (1) [17, 49]: 0.4465
Array Heatmap signal, BAZ2B [18, 50]: 0.4449
Array Heatmap signal, TAF3 [19, 51]: 0.4954
Array Heatmap signal, AIRE (PP) [20, 52]: 0.3934
Array Heatmap signal, ING2 [21, 53]: 0.678
Array Heatmap signal, MORC3 (CW) [22, 54]: 0.6321
Array Heatmap signal, PHF13 [23, 55]: 0.6859
Array Heatmap signal, CHD5 (PPCC) [24, 56]: 0.5419
Array Heatmap signal, PHF8 [25, 57]: 0.4684
Array Heatmap signal, ING5 [26, 58]: 0.3522
Array Heatmap signal, PHF2 [27, 59]: 0.6699
Array Heatmap signal, CHD5 (PCC) [28, 60]: 0.8739
Array Heatmap signal, KDM5B (3) [29, 61]: 0.6308
Array Heatmap signal, ING4 [30, 62]: 0.4775
Array Heatmap signal, SP140L [31, 63]: 0.3804

H3R2me1 + K4me3 + K9ac + K14ac + K18ac: H3 1-20
Array Heatmap signal, RAG2 [1, 33]: 0.5848
Array Heatmap signal, KDM5B (1) [2, 34]: 0.6999
Array Heatmap signal, BPTF (PB) [3, 35]: 0.497
Array Heatmap signal, PHRF1 (RP) [4, 36]: 0.4594
Array Heatmap signal, CHD4 (PPCC) [5, 37]: 0.5338
Array Heatmap signal, ING3 [6, 38]: 0.5459
Array Heatmap signal, PHF21A [7, 39]: 0.4576
Array Heatmap signal, KDM4C (TTP) [8, 40]: 0.6022
Array Heatmap signal, PHF23 [9, 41]: 0.7743
Array Heatmap signal, KDM7A [10, 42]: 0.4977
Array Heatmap signal, MLL5 [11, 43]: 0.7798
Array Heatmap signal, KDM5A (3) [12, 44]: 1
Array Heatmap signal, DPF2 (PPC2W2) [13, 45]: 0.7016
Array Heatmap signal, DIDO1 [14, 46]: 0.9369
Array Heatmap signal, TRIM66 (PB) [15, 47]: 0.5379
Array Heatmap signal, ING1 [16, 48]: 0.6321
Array Heatmap signal, KDM5A (1) [17, 49]: 0.4772
Array Heatmap signal, BAZ2B [18, 50]: 0.5242
Array Heatmap signal, TAF3 [19, 51]: 0.3972
Array Heatmap signal, AIRE (PP) [20, 52]: 0.4342
Array Heatmap signal, ING2 [21, 53]: 0.7542
Array Heatmap signal, MORC3 (CW) [22, 54]: 0.7963
Array Heatmap signal, PHF13 [23, 55]: 0.6575
Array Heatmap signal, CHD5 (PPCC) [24, 56]: 0.5534
Array Heatmap signal, PHF8 [25, 57]: 0.711
Array Heatmap signal, ING5 [26, 58]: 0.3861
Array Heatmap signal, PHF2 [27, 59]: 0.7659
Array Heatmap signal, CHD5 (PCC) [28, 60]: 0.7637
Array Heatmap signal, KDM5B (3) [29, 61]: 0.6033
Array Heatmap signal, ING4 [30, 62]: 0.4735
Array Heatmap signal, SP140L [31, 63]: 0.3363
